Measurements: PubChem BioAssay AID264 (DTP/NCI, 2004)
Values joined by “and” are separate entries in the source; they are usually repeats but may differ in a detail not shown here. Equal values may be shown once. Records with an inconclusive call do not appear.

Test system: nude mice, LX-1 lung xenograft intrarenal, tumor weight T/C
Assay: NCI In Vivo Anticancer Drug Screen. Data for tumor model Human Lung LX-1 Xenograft (intrarenal inoculation) in NU/NU Swiss (nude) mice
Conditions: endpoint: mean tumor weight change, higher = larger tumour
Method in brief: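 Antitumor effect is expressed as a ratio: the mean tumor measurement of the drug-treated group relative to that of the vehicle-dosed control group.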

[1] = dose: 50.0 mg/kg/injection, schedule: Q01DX010 (sc), vehicle: water
[2] = dose: 50.0 mg/kg/injection, schedule: Q04DX003 (sc), vehicle: suspension in saline
[3] = dose: 12.5 mg/kg/injection, schedule: Q04DX003 (sc), vehicle: saline with Tween-80
[4] = dose: 150.0 mg/kg/injection, schedule: Q04DX003 (sc), vehicle: saline with Tween-80
[5] = dose: 300.0 mg/kg/injection, schedule: Q04DX003 (sc), vehicle: saline with Tween-80
[6] = dose: 600.0 mg/kg/injection, schedule: Q04DX003 (sc), vehicle: saline with Tween-80
[7] = dose: 25.0 mg/kg/injection, schedule: Q04DX003 (sc), vehicle: saline with Tween-80
[8] = dose: 50.0 mg/kg/injection, schedule: Q04DX003 (sc), vehicle: saline with Tween-80
[9] = dose: 100.0 mg/kg/injection, schedule: Q04DX003 (sc), vehicle: saline with Tween-80
[10] = dose: 200.0 mg/kg/injection, schedule: Q04DX003 (sc), vehicle: saline with Tween-80
[11] = dose: 1200.0 mg/kg/injection, schedule: Q04DX003 (sc), vehicle: saline with Tween-80

COc1ccc(C[C@H](N)C(=O)NC2C(CO)OC(n3cnc4c(N(C)C)ncnc43)C2O)cc1 (stereo partly drawn)
T/C (dose: 100.0 mg/kg/injection, schedule: Q04DX003 (sc), vehicle: saline): 109 % of control
T/C (dose: 200.0 mg/kg/injection, schedule: Q04DX003 (sc), vehicle: saline): 74 % of control

CCCCCCCC(=O)N/N=C(\CO)[C@]1(O)Cc2c(O)c3c(c(O)c2[C@@H](OC2CC(N)C(O)C(C)O2)C1)C(=O)c1c(OC)cccc1C3=O (stereo partly drawn)
T/C (dose: 12.5 mg/kg/injection, schedule: Q01DX010 (sc), vehicle: water): 40 % of control
T/C (dose: 25.0 mg/kg/injection, schedule: Q01DX010 (sc), vehicle: water): 63 % of control
T/C [1]: 24 % of control

Cc1c2cc[n+](CCN3CCCCC3)cc2c(C)c2c1[nH]c1ccc(O)cc12
T/C [2]: 83 % of control
T/C (dose: 100.0 mg/kg/injection, schedule: Q04DX003 (sc), vehicle: suspension in saline): 68 % of control

[Cl][Pt+2][Cl].[NH-]CC1(C[NH-])CCC1
T/C [2]: 121 % of control

O=C1C=C[C@H](O)[C@@]2(CO)O[C@@H]12
T/C (dose: 6.25 mg/kg/injection, schedule: Q04DX003 (sc), vehicle: saline with Tween-80): 108 % of control
T/C [3]: 77 % of control

CC1(C)OC2C(COC(=O)c3ccc([N+](=O)[O-])cc3)OC(NC(=O)N(CCCl)N=O)C2O1 (stereo not drawn)
T/C (dose: 75.0 mg/kg/injection, schedule: Q04DX003 (sc), vehicle: saline with Tween-80): 84 % of control
T/C [4]: 43 % of control
T/C [5]: 41 % of control
T/C [6]: 27 % of control

OCC1OC(n2cnc3cncnc32)C(O)C1O (stereo not drawn)
T/C (dose: 12.5 mg/kg/injection, schedule: Q04DX003 (sc), vehicle: saline): 89 % of control
T/C (dose: 25.0 mg/kg/injection, schedule: Q04DX003 (sc), vehicle: saline): 118 % of control
T/C (dose: 50.0 mg/kg/injection, schedule: Q04DX003 (sc), vehicle: saline): 69 % of control

Cc1cn(C2CC(F)C(CO)O2)c(=O)[nH]c1=O (stereo not drawn)
T/C (dose: 150.0 mg/kg/injection, schedule: Q04DX003 (sc), vehicle: suspension in saline): 54 % of control
T/C (dose: 300.0 mg/kg/injection, schedule: Q04DX003 (sc), vehicle: suspension in saline): 85 % of control
T/C (dose: 600.0 mg/kg/injection, schedule: Q04DX003 (sc), vehicle: suspension in saline): 56 % of control
T/C (dose: 1200.0 mg/kg/injection, schedule: Q04DX003 (sc), vehicle: suspension in saline): 37 % of control

Cc1ncc(CNC(=O)N(CCCl)N=O)c(N)n1
T/C (dose: 18.75 mg/kg/injection, schedule: Q04DX003 (sc), vehicle: saline): 61 % of control

CC(=O)OC1COC(NC(=O)N(CCCl)N=O)C(OC(C)=O)C1OC(C)=O (stereo not drawn)
T/C (dose: 1.5 mg/kg/injection, schedule: Q01DX010 (sc), vehicle: saline with Tween-80): 83 % of control
T/C (dose: 3.0 mg/kg/injection, schedule: Q01DX010 (sc), vehicle: saline with Tween-80): 71 % of control
T/C (dose: 6.0 mg/kg/injection, schedule: Q01DX010 (sc), vehicle: saline with Tween-80): 60 % of control
T/C (dose: 12.0 mg/kg/injection, schedule: Q01DX010 (sc), vehicle: saline with Tween-80): 72 % of control

CCCC(=O)Nc1ncnc2c1ncn2C1OC2COP(=O)(O)OC2C1OC(=O)CCC (stereo not drawn)
T/C (dose: 100.0 mg/kg/injection, schedule: Q01DX010 (sc), vehicle: saline): 122 % of control
T/C (dose: 200.0 mg/kg/injection, schedule: Q01DX010 (sc), vehicle: saline): 92 % of control
T/C (dose: 400.0 mg/kg/injection, schedule: Q01DX010 (sc), vehicle: saline): 81 % of control

COC(=O)Nc1nc2ccc(C3(c4ccc(F)cc4)OCCO3)cc2[nH]1
T/C [7]: 76 % of control
T/C [8]: 71 % of control
T/C [9]: 89 % of control
T/C [10]: 79 % of control
T/C [11]: 17 % of control and 37 % of control

O=c1[nH]c(=O)n(C2CC(O)C(CO)O2)cc1F (stereo not drawn)
T/C [1]: 77 % of control
T/C (dose: 100.0 mg/kg/injection, schedule: Q01DX010 (sc), vehicle: water): 39 % of control

COc1cc(OC)c(NC(=O)ON2C(=O)c3ccccc3C2=O)cc1Cl
T/C [7]: 93 % of control
T/C [8]: 79 % of control
T/C [9]: 68 % of control
T/C [10]: 92 % of control

BrCC[Se]c1ccccc1
T/C (dose: 50.0 mg/kg/injection, schedule: Q01DX010 (sc), vehicle: saline with Tween-80): 92 % of control
T/C (dose: 100.0 mg/kg/injection, schedule: Q01DX010 (sc), vehicle: saline with Tween-80): 62 % of control
T/C (dose: 200.0 mg/kg/injection, schedule: Q01DX010 (sc), vehicle: saline with Tween-80): 55 % of control

CN=C(N)N/N=C(\c1ccccc1)c1ccc(Br)cc1
T/C [3]: 88 % of control
T/C [7]: 122 % of control
T/C [8]: 103 % of control

O=C1C=C2C(=CCOC2O)O1 (stereo not drawn)
T/C (dose: 1.0 mg/kg/injection, schedule: Q04DX003 (sc), vehicle: Klucel (hydroxypropylcellulose) (HPC)): 158 % of control
T/C (dose: 2.0 mg/kg/injection, schedule: Q04DX003 (sc), vehicle: Klucel (hydroxypropylcellulose) (HPC)): 92 % of control
T/C (dose: 8.0 mg/kg/injection, schedule: Q04DX003 (sc), vehicle: Klucel (hydroxypropylcellulose) (HPC)): 151 % of control

COC(=O)C[C@](O)(CCCC(C)(C)O)C(=O)O[C@@H]1C(OC)=C[C@]23CCCN2CCc2cc4c(cc2[C@H]13)OCO4
T/C (dose: 0.5 mg/kg/injection, schedule: Q01DX010 (sc), vehicle: saline): 115 % of control
T/C (dose: 1.0 mg/kg/injection, schedule: Q01DX010 (sc), vehicle: saline): 61 % of control

COC(=O)NC1C(C)OC(OC2C/C=C(/C)C3C=CC4C(OC5CC(OC6CCC(OC7CC(O)C(OC8CCC(O)C(C)O8)C(C)O7)C(C)O6)C(OC(C)=O)C(C)O5)C(C)CC(C)C4C3(C)/C(O)=C3/C(=O)OC4(CC(C=O)=CC(O)C4/C=C\2C)C3=O)CC1(C)[N+](=O)[O-] (stereo not drawn)
T/C (dose: 12.5 mg/kg/injection, schedule: Q04DX003 (sc), vehicle: other): 63 % of control
T/C (dose: 25.0 mg/kg/injection, schedule: Q04DX003 (sc), vehicle: other): 75 % of control
T/C (dose: 50.0 mg/kg/injection, schedule: Q04DX003 (sc), vehicle: other): 100 % of control
T/C (dose: 100.0 mg/kg/injection, schedule: Q04DX003 (sc), vehicle: other): 93 % of control

COc1nc(=O)n(C2C=CC(=O)O2)cc1F (stereo not drawn)
T/C (dose: 25.0 mg/kg/injection, schedule: Q04DX003 (sc), vehicle: Klucel (hydroxypropylcellulose) (HPC)): 66 % of control
T/C (dose: 50.0 mg/kg/injection, schedule: Q04DX003 (sc), vehicle: Klucel (hydroxypropylcellulose) (HPC)): 54 % of control
T/C (dose: 100.0 mg/kg/injection, schedule: Q04DX003 (sc), vehicle: Klucel (hydroxypropylcellulose) (HPC)): 37 % of control

CC1OC(=O)C(C(C)C)NC(=O)C(C(C)C)OC(=O)C(C(C)C)NC(=O)C(C)OC(=O)C(C(C)C)NC(=O)C(C(C)C)OC(=O)C(C(C)C)NC(=O)C(C)OC(=O)C(C(C)C)NC(=O)C(C(C)C)OC(=O)C(C(C)C)NC1=O (stereo not drawn)
T/C (dose: 5.0 mg/kg/injection, schedule: Q01DX010 (ip), vehicle: saline with Tween-80): 44 % of control
T/C (dose: 5.0 mg/kg/injection, schedule: Q01DX010 (sc), vehicle: saline with Tween-80): 107 % of control
T/C (dose: 10.0 mg/kg/injection, schedule: Q01DX010 (ip), vehicle: saline with Tween-80): 28 % of control
T/C (dose: 16.66 mg/kg/injection, schedule: Q04DX003 (ip), vehicle: saline with Tween-80): 56 % of control
T/C (dose: 16.66 mg/kg/injection, schedule: Q04DX003 (sc), vehicle: saline with Tween-80): 179 % of control
T/C (dose: 33.33 mg/kg/injection, schedule: Q04DX003 (sc), vehicle: saline with Tween-80): 94 % of control
T/C (dose: 66.65 mg/kg/injection, schedule: Q04DX003 (ip), vehicle: saline with Tween-80): 37 % of control
T/C (dose: 66.65 mg/kg/injection, schedule: Q04DX003 (sc), vehicle: saline with Tween-80): 119 % of control

OC(CCl)CN1CC[N+]2(CC1)CC[N+]1(CCN(CC(O)CCl)CC1)CC2 (stereo not drawn)
T/C (dose: 128.0 mg/kg/injection, schedule: Q01DX010 (sc), vehicle: water): 78 % of control
T/C (dose: 256.0 mg/kg/injection, schedule: Q01DX010 (sc), vehicle: water): 59 % of control

CCCCCCC(=O)CC(SCC)c1ccccc1Cl (stereo not drawn)
T/C [5]: 82 % of control
T/C [6]: 96 % of control
T/C [11]: 92 % of control
T/C (dose: 2400.0 mg/kg/injection, schedule: Q04DX003 (sc), vehicle: saline with Tween-80): 72 % of control

[Cl][Mn][Cl]
T/C (dose: 75.0 mg/kg/injection, schedule: Q04DX003 (sc), vehicle: saline): 68 % of control
T/C (dose: 150.0 mg/kg/injection, schedule: Q04DX003 (sc), vehicle: saline): 50 % of control

O=Cc1c(O)c2ccccc2[nH]c1=O
T/C [4]: 84 % of control
T/C [5]: 99 % of control
T/C [6]: 90 % of control
T/C [11]: 50 % of control
